# Reference: PubChem BioAssay (NCI)
#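 Compound exposure: 48 hours, 5 concentrations, 96-well plates. TGI marks complete inhibition of growth.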
# Assays:
# Assay in all cases: NCI-60 cell line screen, 48 h
# [1] = system: 786-0 renal
# [2] = system: A549 NSCLC
# [3] = system: ACHN renal
# [4] = system: CAKI-1 renal
# [5] = system: CCRF-CEM leukemia
# [6] = system: COLO 205 colon
# [7] = system: DLD-1 colon
# [8] = system: DMS 114 small cell lung
# [9] = system: DMS 273 small cell lung
# [10] = system: EKVX NSCLC
# [11] = system: HCC-2998 colon
# [12] = system: HCT-116 colon
# [13] = system: HCT-15 colon
# [14] = system: HL-60(TB) leukemia
# [15] = system: HOP-18 NSCLC
# [16] = system: HOP-62 NSCLC
# [17] = system: HT29 colon
# [18] = system: IGROV1 ovarian
# [19] = system: K-562 leukemia
# [20] = system: KM12 colon
# [21] = system: KM20L2 colon
# [22] = system: LOX IMVI melanoma
# [23] = system: LXFL 529 NSCLC
# [24] = system: M14 melanoma
# [25] = system: M19-MEL melanoma
# [26] = system: MALME-3M melanoma
# [27] = system: MOLT-4 leukemia
# [28] = system: NCI-H226 lung
# [29] = system: NCI-H23 lung
# [30] = system: NCI-H460 lung
# [31] = system: NCI-H522 lung
# [32] = system: OVCAR-3 ovarian
# [33] = system: OVCAR-4 ovarian
# [34] = system: OVCAR-5 ovarian
# [35] = system: OVCAR-8 ovarian
# [36] = system: RPMI-8226 leukemia
# [37] = system: RXF 393 renal
# [38] = system: SF-268 CNS
# [39] = system: SF-295 CNS
# [40] = system: SF-539 CNS
# [41] = system: SK-MEL-2 melanoma
# [42] = system: SK-MEL-28 melanoma
# [43] = system: SK-MEL-5 melanoma
# [44] = system: SK-OV-3 ovarian
# [45] = system: SN12C renal
# [46] = system: SNB-19 CNS
# [47] = system: SNB-75 CNS
# [48] = system: SNB-78 CNS
# [49] = system: SR leukemia
# [50] = system: SW-620 colon
# [51] = system: TK-10 renal
# [52] = system: U251 CNS
# [53] = system: UACC-257 melanoma
# [54] = system: UACC-62 melanoma
# [55] = system: UO-31 renal
# [56] = system: XF 498 CNS
compound,measurement,setting,value
C[Si](C)(c1ccccc1)C1CC(=O)CC(=O)C1,TGI,[1],49.9 µM
same,TGI,[2],> 100 µM
same,TGI,[3],> 100 µM
same,TGI,[4],> 100 µM
same,TGI,[5],> 100 µM
same,TGI,[6],> 100 µM
same,TGI,[7],> 100 µM
same,TGI,[8],> 100 µM
same,TGI,[9],> 100 µM
same,TGI,[10],> 100 µM
same,TGI,[11],> 100 µM
same,TGI,[12],> 100 µM
same,TGI,[13],> 100 µM
same,TGI,[14],43.3 µM
same,TGI,[15],> 100 µM
same,TGI,[16],> 100 µM
same,TGI,[17],> 100 µM
same,TGI,[18],48.3 µM
same,TGI,[19],> 100 µM
same,TGI,[20],> 100 µM
same,TGI,[21],> 100 µM
same,TGI,[22],42.5 µM
same,TGI,[23],> 100 µM
same,TGI,[24],> 100 µM
same,TGI,[25],> 100 µM
same,TGI,[26],> 100 µM
same,TGI,[27],> 100 µM
same,TGI,[28],> 100 µM
same,TGI,[29],> 100 µM
same,TGI,[30],> 100 µM
same,TGI,[31],60.8 µM
same,TGI,[32],> 100 µM
same,TGI,[33],> 100 µM
same,TGI,[34],> 100 µM
same,TGI,[35],> 100 µM
same,TGI,[36],> 100 µM
same,TGI,[37],> 100 µM
same,TGI,[38],> 100 µM
same,TGI,[39],> 100 µM
same,TGI,[40],34.4 µM
same,TGI,[41],> 100 µM
same,TGI,[42],> 100 µM
same,TGI,[43],> 100 µM
same,TGI,[44],> 100 µM
same,TGI,[45],> 100 µM
same,TGI,[46],> 100 µM
same,TGI,[47],> 100 µM
same,TGI,[48],> 100 µM
same,TGI,[49],> 100 µM
same,TGI,[50],> 100 µM
same,TGI,[51],> 100 µM
same,TGI,[52],> 100 µM
same,TGI,[53],> 100 µM
same,TGI,[54],> 100 µM
same,TGI,[55],37.6 µM
same,TGI,[56],> 100 µM
